Measurements: US20150315188A1, “COMPOUNDS AND METHODS FOR TREATMENT OF HYPERTENSION” (MEDIVATION TECHNOLOGIES, INC., priority 2012, published 2015)

Experiments:
Set-up in all cases: purchased Milipore (Millipore)
[1] = target: T1, Human adrenergic α2B receptor (Homo sapiens, UniProt P18089); test: Radioligand binding, adrenergic α2B (Protocol Group B); conditions: Protocol Group B; for Percentage inhibition of ligand binding, Adrenergic α2B (10 nM): 0.01 µM; for Percentage inhibition of ligand binding, Adrenergic α2B (30 nM): 30 nM compound, 0.03 µM
T1 sequence (P18089 1-450): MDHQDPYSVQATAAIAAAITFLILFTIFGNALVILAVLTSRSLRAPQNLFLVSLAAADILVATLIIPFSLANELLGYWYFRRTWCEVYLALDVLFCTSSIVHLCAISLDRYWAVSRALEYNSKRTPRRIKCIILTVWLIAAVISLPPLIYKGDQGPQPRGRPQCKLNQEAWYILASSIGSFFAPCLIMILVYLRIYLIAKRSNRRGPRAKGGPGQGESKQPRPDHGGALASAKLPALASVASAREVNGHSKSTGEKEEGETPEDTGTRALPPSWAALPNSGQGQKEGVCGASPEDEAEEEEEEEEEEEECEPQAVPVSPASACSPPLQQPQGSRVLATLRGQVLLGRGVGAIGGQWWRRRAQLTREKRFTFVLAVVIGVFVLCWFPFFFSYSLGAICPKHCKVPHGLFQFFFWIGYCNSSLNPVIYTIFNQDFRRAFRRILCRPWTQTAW
Method in brief: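 Compounds at various concentrations in 1% DMSO were tested on recombinant membranes in Tris-HCl pH 7.4 buffer containing MgCl2, CaCl2 and 0.2% BSA.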

[2] = target: T2, Human adrenergic α2A receptor (Homo sapiens, UniProt P08913); test: Radioligand binding, adrenergic α2A (Protocol Group B); conditions: Protocol Group B; for Percentage inhibition of ligand binding, Adrenergic α2A (0.3 μM): 0.3 μM compound
T2 sequence (P08913 1-465): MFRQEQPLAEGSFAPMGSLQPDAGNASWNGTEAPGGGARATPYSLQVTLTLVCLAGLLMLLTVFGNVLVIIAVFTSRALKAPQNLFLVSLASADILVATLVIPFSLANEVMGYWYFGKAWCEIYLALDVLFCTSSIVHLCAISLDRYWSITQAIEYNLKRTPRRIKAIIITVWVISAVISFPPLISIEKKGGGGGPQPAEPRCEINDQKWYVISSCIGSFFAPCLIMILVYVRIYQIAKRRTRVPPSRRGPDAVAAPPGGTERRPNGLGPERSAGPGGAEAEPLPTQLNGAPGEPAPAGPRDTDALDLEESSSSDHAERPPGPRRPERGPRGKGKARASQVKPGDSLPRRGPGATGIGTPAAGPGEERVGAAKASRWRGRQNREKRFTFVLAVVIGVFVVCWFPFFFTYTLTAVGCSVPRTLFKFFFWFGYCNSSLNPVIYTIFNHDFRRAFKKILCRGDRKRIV
Method in brief: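 Compounds (1% DMSO vehicle, various concentrations) competed against 2 nM [^3H]MK-912 on recombinant receptor membranes for 60 min at 25° C, Tris-HCl pH 7.4 buffer with Mg2+, Ca2+, BSA. Bound radioligand filtered and counted; 10 μM rauwolscine set nonspecific binding. Values: percent inhibition of specific binding or estimated Ki.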

[3] = target: T3, Human adrenergic α1B receptor (Homo sapiens, UniProt P35368); test: Radioligand binding, adrenergic α1B (Protocol Group B); conditions: Protocol Group B; for Percentage inhibition of ligand binding, Adrenergic α1B (0.1 μM): 0.1 μM compound
T3 sequence (P35368 1-520): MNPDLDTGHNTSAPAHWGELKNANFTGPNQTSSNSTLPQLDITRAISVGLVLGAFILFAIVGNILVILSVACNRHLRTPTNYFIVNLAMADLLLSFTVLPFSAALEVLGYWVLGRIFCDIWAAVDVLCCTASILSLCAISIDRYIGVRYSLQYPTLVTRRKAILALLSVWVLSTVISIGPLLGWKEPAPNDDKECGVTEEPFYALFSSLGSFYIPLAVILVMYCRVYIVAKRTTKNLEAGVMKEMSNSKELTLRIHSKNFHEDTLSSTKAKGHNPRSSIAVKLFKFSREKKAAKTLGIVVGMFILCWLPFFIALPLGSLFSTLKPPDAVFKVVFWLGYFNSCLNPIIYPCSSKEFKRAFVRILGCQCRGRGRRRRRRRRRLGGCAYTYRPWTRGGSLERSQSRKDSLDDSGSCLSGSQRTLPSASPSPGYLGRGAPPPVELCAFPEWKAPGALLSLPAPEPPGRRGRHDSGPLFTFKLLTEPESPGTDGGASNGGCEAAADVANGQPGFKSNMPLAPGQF
Method in brief: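 Values are percent inhibition of specific [3H]prazosin (0.3 nM) binding or estimated Ki, from filtration counting. Human α1B recombinant membranes, Tris-HCl pH 7.4 buffer with MgCl2 and EDTA, 60 min at 25 °C, 1% DMSO vehicle; 10 μM prazosin defined nonspecific binding.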

| Structure (SMILES) | Percentage inhibition of ligand binding, Adrenergic α2B (10 nM) ([1]; 10 nM compound) [%] | Percentage inhibition of ligand binding, Adrenergic α2B (30 nM) [1] [%] | Percentage inhibition of ligand binding, Adrenergic α2B (0.1 μM) ([1]; 0.1 μM compound) [%] | Percentage inhibition of ligand binding, Adrenergic α2A (0.1 μM) ([2]; 0.1 μM compound) [%] | Percentage inhibition of ligand binding, Adrenergic α2A (0.3 μM) [2] [%] | Percentage inhibition of ligand binding, Adrenergic α1B (0.1 μM) [3] [%] | Percentage inhibition of ligand binding, Adrenergic α1B (0.3 μM) ([3]; 0.3 μM compound) [%] | inhibition at 0.1 µM ([1]; 0.1 μM compound, read-out: Percentage inhibition of ligand binding, Adrenergic α2B (0.1 μM)) [%] | inhibition at 0.3 µM ([3]; 0.3 μM compound, read-out: Percentage inhibition of ligand binding, Adrenergic α1B (0.3 μM)) [%] | Ki ([1]; estimated Ki, read-out: Ki α2B) [µM] | Ki ([2]; estimated Ki) [µM] | inhibition at 0.01 µM ([1]; 10 nM compound, read-out: Percentage inhibition of ligand binding, Adrenergic α2B (10 nM)) [%] | inhibition at 0.1 µM ([2]; 0.1 μM compound, read-out: Percentage inhibition of ligand binding, Adrenergic α2A (0.1 μM)) [%] |
| --- | --- | --- | --- | --- | --- | --- | --- | --- | --- | --- | --- | --- | --- |
| Cc1cc(F)c2c(c1)c1c(n2CC(C)(O)c2ccncc2)CC2CCCN2C1 (single isomer, unassigned) [62b] | 12 | 32 | 62 | 16 | 26 | 2 | 21 | – | – | – | – | – | – |
| Cc1cc(F)c2c(c1)c1c(n2CC(C)(O)c2ccncc2)CC2CCCN2C1 (single isomer, unassigned) [62c] | 47 | 52 | 65 | 5 | 21 | 10 | 15 | – | – | – | – | – | – |
| Cc1cc(F)c2c(c1)c1c(n2CC(C)(O)c2ccncc2)CC2CCCN2C1 (single isomer, unassigned) [62d] | 21 | 57 | 82 | 11 | 25 | 12 | 27 | – | – | – | – | – | – |
| CC(O)(Cn1c2c(c3cc(Cl)cc(F)c31)CN1CCCC1C2)c1cccnc1 (single isomer, unassigned) [63a] | 25 | 55 | 84 | 3 | 32 | 2 | 24 | – | – | – | – | – | – |
| CC(O)(Cn1c2c(c3cc(Cl)cc(F)c31)CN1CCCC1C2)c1cccnc1 (single isomer, unassigned) [63b] | −6 | −3 | 22 | 0 | 13 | −1 | 1 | – | – | – | – | – | – |
| CC(O)(Cn1c2c(c3cc(Cl)cc(F)c31)CN1CCCC1C2)c1cccnc1 (single isomer, unassigned) [63d] | −10 | 5 | – | −13 | −12 | −5 | −4 | – | – | – | – | – | – |
| CC(O)(Cn1c2c(c3cc(C(F)(F)F)ccc31)C1CCCN1CC2)c1cccnc1 (single isomer, unassigned) [64a] | 73 | 91 | – | 37 | 61 | 18 | – | 96 | 47 | – | – | – | – |
| CC(O)(Cn1c2c(c3cc(C(F)(F)F)ccc31)C1CCCN1CC2)c1cccnc1 (single isomer, unassigned) [64b] | 15 | 47 | 76 | 10 | 37 | 4 | 27 | – | – | – | – | – | – |
| Cc1cc(F)cc2c3c(n(CC(C)(O)c4cccnc4)c12)CCN1CCCC31 (single isomer, unassigned) [75c] | 90 | 96 | – | 67 | 84 | 41 | 69 | – | – | 0.00098 | 0.0245 | – | – |
| Cc1cc(F)cc2c3c(n(CC(C)(O)c4cccnc4)c12)CC1CCCN1C3 (single isomer, unassigned) [76a] | 12 | 21 | 53 | −3 | 12 | −8 | 11 | – | – | – | – | – | – |
| Cc1cc(F)cc2c3c(n(CC(C)(O)c4cccnc4)c12)CC1CCCN1C3 (single isomer, unassigned) [76b] | 11 | 5 | 20 | 5 | 0 | 4 | 3 | – | – | – | – | – | – |
| Cc1cc(F)cc2c3c(n(CC(C)(O)c4cccnc4)c12)CC1CCCN1C3 (single isomer, unassigned) [76c] | −3 | −3 | – | 19 | 18 | 19 | 33 | – | – | – | – | – | – |
| Cc1cc(F)cc2c3c(n(CC(C)(O)c4ccncc4)c12)CCN1CCCC31 (single isomer, unassigned) [77a] | – | 30 | – | – | 19 | 7 | 32 | – | – | – | – | 12 | 3 |
| Cc1cc(F)cc2c3c(n(CC(C)(O)c4ccncc4)c12)CCN1CCCC31 (single isomer, unassigned) [77b] | 6 | 12 | – | 5 | 9 | −3 | 14 | – | – | – | – | – | – |
